In general, IC50 refers to the point on the concentration scale where inhibition reaches its midpoint.

Some results are limits rather than exact numbers.

In patent US20240228469A1, “PCSK9 INHIBITORS AND METHODS OF USE THEREOF” (AstraZeneca AB, priority 2022, published 2024) one finds IC50 data, which are given here for 20 compounds.

In experiment [1] the target is T1, potassium ion channel hERG (Homo sapiens, UniProt Q12809).
T1 construct: expressed in transfected cells; host or cells: Chinese hamster ovary K1 (CHO)
Kind of experiment: Assay 5 hERG assay (patch clamp, CHO cells over-expressing hERG). The format is cell-based. The conditions noted are these: SyncroPatch 384PE, room temperature, geometric mean, read-out: Assay 5 (hERG Hu CHO if EPh CR-Syncro) GMean IC50. The procedure:
This assay (human Ether-d-go-go-Related Gene) measures activity of the compounds at the potassium ion channel hERG (human Ether-d-go-go-Related Gene).
Experiments were performed on the SyncroPatch 384PE high throughput patch clamp platform at room temperature and medium resistance chips with 4 patch holes per site. Chinese hamster ovary K1 (CHO) cell lines over-expressing the ion channel of choice (hERG) were used in assay-ready format and kept in liquid nitrogen or were used from live culture. Cells were either thawed and diluted in HBSS or were detached from flasks and resuspended in HBSS. HBSS comprised 140 mM NaCl, 4 mM KCl, 10 mM HEPES and 5 mM Glucose (pH7.4). The internal patch clamp solution was KF 120 mM, KCl 20 mM, HEPES 10 mM, EGTA 10 mM, and 25 PM Escin (pH 7.2). After the sealing process was complete, the external solution was exchanged for external patch clamp solution comprising NaCl 80 mM, KCl 4 mM, HEPES 10 mM, CaCl2 2 mM, MgCl2 1 mM, glucose 5 mM, and NMDG 60 mM (pH 7.4). All solutions were stored at room temperature, except Escin, which was stored at 4° C. All test compounds were dispensed in greiner-bio 384 well plates and tested in a 6 point cumulative assay (final DMSO concentration 0.33%). Only wells that passed previously agreed acceptance criteria for this platform were used in this analysis (30 MegaOhm seal resistance, Z prime >0.4 and current size >0.2 nA). […]
On the technique in general: Block of hERG is tested as a sign of cardiac risk.

Experiment [2] concerns the target GSK3β (Glycogen synthase kinase-3 beta) (Homo sapiens, UniProt P49841). Kind of experiment: Assay 6 GSK3β assay (ThermoFisher Z-Lyte FRET). Format: biochemical. The settings on record: ATP Conc: 10 μM, geometric mean; read-out: Assay 6 (GSK3β FRET-Z-Lyte Cr) GMean IC50. As for the experimental part:
This assay measures the activity of the compounds at GSK33 (Glycogen synthase kinase-3 beta).
The test compounds were screened in 1% DMSO (final) in the well. For 10 point titrations, 3-fold serial dilutions are conducted from the starting concentration of 10 PM.
Bar-coded Corning, low volume NBS, black 384-well plate • 1. 2.5 μL—4× Test Compound or 100 nL 100× plus 2.4 μL kinase buffer • 2. 5 μL—2× Peptide/Kinase Mixture • 3. 2.5 μL—4×ATP Solution • 4. 30-second plate shake • 5. 60-minute Kinase Reaction incubation at room temperature • 6. 5 μL—Development Reagent Solution • 7. 30-second plate shake • 8. 60-minute Development Reaction incubation at room temperature • 9. Read on fluorescence plate reader and analyse the data
In step 2, the 2×GSK3β (GSK3 beta)/Ser/Thr (Glycogen synthase kinase-3 beta/Serine/Threonine) 09 mixture is prepared in 50 mM HEPES (4-(2-hydroxyethyl)-1-piperazineethanesulfonic acid) pH 7.5, 0.01% BRIJ-35, 10 mM MgCl2, 1 mM EGTA (egtazic acid). The final 10 μL Kinase Reaction consists of 0.22-0.92 ng GSK3β (GSK3 beta) and 2 PM Ser/Thr 09 in 50 mM HEPES pH 7.5, 0.01% BRIJ-35, 10 mM MgCl2, 1 mM EGTA.
In step 3 the ATP Solution is diluted to a 4× working concentration in Kinase Buffer (50 mM HEPES pH 7.5, 0.01% BRIJ-35, 10 mM MgCl2, 1 mM EGTA).
In Step 6 the Development Reagent is diluted 1:512 in Development Buffer (10× Novel PKC Lipid Mix: 2 mg/mL Phosphatidyl Serine, 0.2 mg/mL DAG in 20 mM HEPES, pH 7.4, 0.3% CHAPS).
SelectScreen® Kinase Profiling Service uses XLfit from IDBS. The dose response curve is curve fit to model number 205 (sigmoidal dose-response model).

Another experiment has as its target PCSK9 (Homo sapiens, UniProt Q8NBP7, G670E/V474I). Put plainly: biochemical.

Sequence of PCSK9 (Q8NBP7 with tags, fused parts or gaps V474I/G670E): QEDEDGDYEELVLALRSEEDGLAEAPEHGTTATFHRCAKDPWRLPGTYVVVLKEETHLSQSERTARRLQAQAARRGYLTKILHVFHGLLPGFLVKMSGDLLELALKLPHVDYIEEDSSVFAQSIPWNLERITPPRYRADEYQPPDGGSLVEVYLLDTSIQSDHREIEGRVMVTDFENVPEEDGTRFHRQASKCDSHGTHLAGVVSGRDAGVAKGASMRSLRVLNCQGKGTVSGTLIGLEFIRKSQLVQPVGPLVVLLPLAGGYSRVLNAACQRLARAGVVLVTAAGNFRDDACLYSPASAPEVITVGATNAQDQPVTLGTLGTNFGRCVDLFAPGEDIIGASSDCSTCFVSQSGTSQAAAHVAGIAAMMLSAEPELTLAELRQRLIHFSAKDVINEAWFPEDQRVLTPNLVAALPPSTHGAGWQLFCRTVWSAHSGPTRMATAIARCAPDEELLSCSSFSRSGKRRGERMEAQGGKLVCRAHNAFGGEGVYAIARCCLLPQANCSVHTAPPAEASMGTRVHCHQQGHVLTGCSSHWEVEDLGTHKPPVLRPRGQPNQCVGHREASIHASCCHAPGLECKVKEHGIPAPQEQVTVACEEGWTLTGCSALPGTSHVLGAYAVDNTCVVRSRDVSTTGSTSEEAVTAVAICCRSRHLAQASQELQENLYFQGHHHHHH
T1 sequence (Q12809 whole entry): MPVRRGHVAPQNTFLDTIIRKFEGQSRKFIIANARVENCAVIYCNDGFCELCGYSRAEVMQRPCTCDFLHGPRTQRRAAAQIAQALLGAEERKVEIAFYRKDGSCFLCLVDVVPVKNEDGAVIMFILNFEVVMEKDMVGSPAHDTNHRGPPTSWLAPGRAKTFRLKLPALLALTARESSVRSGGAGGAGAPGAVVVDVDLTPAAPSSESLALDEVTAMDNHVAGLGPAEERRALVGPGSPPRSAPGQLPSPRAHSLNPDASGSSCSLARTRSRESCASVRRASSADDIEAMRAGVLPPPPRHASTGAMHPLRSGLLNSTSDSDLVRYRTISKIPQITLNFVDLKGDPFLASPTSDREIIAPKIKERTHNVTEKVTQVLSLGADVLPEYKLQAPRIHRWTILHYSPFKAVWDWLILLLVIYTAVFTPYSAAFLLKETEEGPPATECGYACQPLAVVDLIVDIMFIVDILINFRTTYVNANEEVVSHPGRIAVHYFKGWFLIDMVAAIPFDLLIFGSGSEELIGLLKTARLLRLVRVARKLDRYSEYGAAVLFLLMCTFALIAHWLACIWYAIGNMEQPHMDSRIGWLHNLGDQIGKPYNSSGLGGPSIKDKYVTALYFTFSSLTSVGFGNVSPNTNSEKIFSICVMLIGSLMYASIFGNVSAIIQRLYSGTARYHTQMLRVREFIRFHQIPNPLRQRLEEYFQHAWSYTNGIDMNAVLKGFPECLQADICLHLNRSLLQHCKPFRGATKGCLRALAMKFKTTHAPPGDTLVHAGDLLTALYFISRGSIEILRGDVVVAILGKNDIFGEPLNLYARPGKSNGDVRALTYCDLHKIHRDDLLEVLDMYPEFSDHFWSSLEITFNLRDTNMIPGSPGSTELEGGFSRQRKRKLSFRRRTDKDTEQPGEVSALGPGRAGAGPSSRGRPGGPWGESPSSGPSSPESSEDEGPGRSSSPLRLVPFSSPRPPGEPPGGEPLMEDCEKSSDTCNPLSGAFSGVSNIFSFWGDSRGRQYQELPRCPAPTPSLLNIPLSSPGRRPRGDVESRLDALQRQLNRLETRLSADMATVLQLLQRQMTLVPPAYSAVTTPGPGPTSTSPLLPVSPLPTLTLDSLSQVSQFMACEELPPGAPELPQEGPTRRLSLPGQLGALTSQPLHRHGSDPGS
Sequence of GSK3β (Glycogen synthase kinase-3 beta) (P49841 whole entry): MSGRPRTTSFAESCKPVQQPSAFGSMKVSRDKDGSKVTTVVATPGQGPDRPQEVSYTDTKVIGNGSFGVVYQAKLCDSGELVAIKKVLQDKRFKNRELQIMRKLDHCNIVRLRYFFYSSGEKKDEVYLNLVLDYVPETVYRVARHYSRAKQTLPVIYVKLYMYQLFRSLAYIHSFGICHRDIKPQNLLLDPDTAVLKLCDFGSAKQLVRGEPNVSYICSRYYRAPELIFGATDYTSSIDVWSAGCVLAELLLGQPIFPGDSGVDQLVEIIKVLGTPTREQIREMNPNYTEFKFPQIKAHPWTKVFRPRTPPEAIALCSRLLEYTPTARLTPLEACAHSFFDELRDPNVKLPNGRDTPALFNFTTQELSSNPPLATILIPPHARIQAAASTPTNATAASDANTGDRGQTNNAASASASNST

Turning to `CCOC(=O)c1cnc(N[C@H]2CC[C@H](Nc3ccc(-n4ccccc4=O)cn3)C2)nn1` [Compound 10, Ethyl 3-(((1S,3S)-3-((2-oxo-2H-[1,3′-bipyridin]-6′-yl)amino)cyclopentyl)amino)-1,2,4-triazine-6-carboxylate], the values for the IC50 (in experiment [1]; in experiment [2]; at PCSK9) were over 40 µM, over 10 µM and 0.797 µM, respectively.

In the case of `O=c1ccccn1-c1ccc(N[C@H]2CC[C@H](Nc3ncc(Cl)nn3)C2)nc1` [Example 255, 6′-(((1S,3S)-3-((6-Chloro-1,2,4-triazin-3-yl)amino)cyclopentyl)amino)-2H-[1,3′-bipyridin]-2-one], the results for the IC50 (in experiment [1]; in experiment [2]; on PCSK9) were over 40.1 µM, 5.33 µM and 0.078 µM, respectively.

For the compound `COc1cccc(OC)c1-c1ccc(N[C@H]2CC[C@H](Nc3ncc(C)nn3)C2)nc1` [Example 307, (1S,3S)—N^1-(5-(2,6-Dimethoxyphenyl)pyridin-2-yl)-N^3-(6-methyl-1,2,4-triazin-3-yl)cyclopentane-1,3-diamine], the IC50 was 23.3 µM in experiment [1], over 10 µM in experiment [2] and 1.66 µM against PCSK9.

Regarding `CN(CCO)C(=O)c1cnc(N[C@H]2CC[C@H](Nc3ccc(-n4ccccc4=O)cn3)C2)nn1` [Example 151, N-(2-Hydroxyethyl)-N-methyl-3-(((1S,3S)-3-((2-oxo-2H-[1,3′-bipyridin]-6′-yl)amino)cyclopentyl)amino)-1,2,4-triazine-6-carboxamide], the IC50 in experiment [1] is over 40.1 µM; in experiment [2] it was over 10 µM; against PCSK9, 2.25 µM.

For the compound `Cc1nnc(N[C@H]2CC[C@H](Nc3ccc(-n4ccccc4=O)cn3)C2)[nH]c1=O` [Example 254, 6′-(((1S,3S)-3-((6-Methyl-5-oxo-4,5-dihydro-1,2,4-triazin-3-yl)amino)cyclopentyl)amino)-2H-[1,3′-bipyridin]-2-one], the IC50 is over 40.1 µM in experiment [1], 6.14 µM in experiment [2] and 0.33 µM against PCSK9.

For `CCSc1cnc(N[C@H]2CC[C@H](Nc3ccc(-n4ccccc4=O)cn3)C2)nn1` [Example 258, 6′-(((1S,3S)-3-((6-(Ethylthio)-1,2,4-triazin-3-yl)amino)cyclopentyl)amino)-2H-[1,3′-bipyridin]-2-one], the figures for the IC50 (in experiment [1]; in experiment [2]; against PCSK9) were 26.1 µM, 0.237 µM and 0.015 µM, respectively.

Take `Cc1cnc(N[C@H]2CC[C@H](Nc3ccc(-c4nc(C)oc4C)cn3)C2)nn1` [Example 314, (1S,3S)—N^1-(5-(2,5-Dimethyloxazol-4-yl)pyridin-2-yl)-N^3-(6-methyl-1,2,4-triazin-3-yl)cyclopentane-1,3-diamine]: the IC50 in experiment [1] was 25.7 µM; in experiment [2], over 10 µM; against PCSK9, 0.11 µM.

Consider `Cc1cnc(N[C@H]2CC[C@H](Nc3ccc(-n4nc(C)cc4C)cn3)C2)nn1` [Example 249], for which the figures for the IC50 (in experiment [1]; in experiment [2]; against PCSK9) were over 40.1 µM, over 10 µM and 0.016 µM, respectively.

Regarding `COc1ccccc1-c1ccc(N[C@H]2CC[C@H](Nc3ncc(C)nn3)C2)nc1` [Example 306, (1S,3S)—N′-(5-(2-Methoxyphenyl)pyridin-2-yl)-N^3-(6-methyl-1,2,4-triazin-3-yl)cyclopentane-1,3-diamine], the IC50 in experiment [1] is 4.5 µM; in experiment [2] it was over 10 µM; against PCSK9 it was 0.302 µM.

As to `Cc1cnc(N[C@H]2CC[C@H](Nc3ccc(-n4nc(Cl)ccc4=O)cn3)C2)nn1` [Example 222], the IC50 in experiment [1] is over 40.1 µM; in experiment [2] it was over 10 µM; at PCSK9 it was 0.0083 µM.

For `Cn1cccc(-c2ccc(N[C@H]3CC[C@H](Nc4ncc(C5CC5)nn4)C3)nc2)c1=O` [Example 60, 6′-(((1S,3S)-3-((6-Cyclopropyl-1,2,4-triazin-3-yl)amino)cyclopentyl)amino)-1-methyl-[3,3′-bipyridin]-2(1H)-one], the IC50 in experiment [1] is 21 µM; in experiment [2], over 10 µM; against PCSK9, 0.0091 µM.

`O=c1cccnn1-c1cnc(N[C@H]2CC[C@H](Nc3ncc(C4CC4)nn3)C2)cn1` [Example 59, 2-(5-(((1S,3S)-3-((6-Cyclopropyl-1,2,4-triazin-3-yl)amino)cyclopentyl)amino)pyrazin-2-yl)pyridazin-3(2H)-one]: the IC50 in experiment [1] was over 40 µM; in experiment [2] it was over 10 µM; at PCSK9 it was 0.045 µM.

For `COc1c(-c2nnn[nH]2)ccc(F)c1-c1ccc(N[C@H]2CC[C@H](Nc3ncc(C4CC4)nn3)C2)nc1` [Example 169, (1S,3S)—N^1-(6-Cyclopropyl-1,2,4-triazin-3-yl)-N^3-(5-(6-fluoro-2-methoxy-3-(1H-tetrazol-5-yl)phenyl)pyridin-2-yl)cyclopentane-1,3-diamine], the IC50 was over 40.1 µM in experiment [1], 0.31 µM in experiment [2] and 0.027 µM against PCSK9.

For `Cc1cnc(NCC(CCO)CNc2ccc(-n3cccc(C)c3=O)cn2)nn1` (racemic) [Example 315, rac-6′-((4-Hydroxy-2-(((6-methyl-1,2,4-triazin-3-yl)amino)methyl)butyl)amino)-3-methyl-2H-[1,3′-bipyridin]-2-one], the IC50 was over 40.1 µM in experiment [1], over 10 µM in experiment [2] and 1.29 µM against PCSK9.

For the compound `Cc1cnc(N[C@H]2CC[C@H](Nc3ccc(-n4cc5ccccc5n4)cn3)C2)nn1` [Example 312, (1S,3S)—N^1-(5-(2H-Indazol-2-yl)pyridin-2-yl)-N^3-(6-methyl-1,2,4-triazin-3-yl)cyclopentane-1,3-diamine], the IC50 was 4.2 µM in experiment [1], over 10 µM in experiment [2] and 0.037 µM against PCSK9.

As for `C#CCN(C)C(=O)c1cnc(N[C@H]2CC[C@H](Nc3ccc(-n4ccccc4=O)cn3)C2)nn1` [Example 152, N-Methyl-3-(((1S,3S)-3-((2-oxo-2H-[1,3′-bipyridin]-6′-yl)amino)cyclopentyl)amino)-N-(prop-2-yn-1-yl)-1,2,4-triazine-6-carboxamide], the IC50 is over 40.1 µM in experiment [1], over 10 µM in experiment [2] and 0.244 µM against PCSK9.

`Cn1cccc(-c2cnc(N[C@H]3CC[C@H](Nc4ncc(C5CC5)nn4)C3)nc2)c1=O` [Example 115, 3-(2-(((1S,3S)-3-((6-Cyclopropyl-1,2,4-triazin-3-yl)amino)cyclopentyl)amino)pyrimidin-5-yl)-1-methylpyridin-2(1H)-one]: the IC50 is over 40 µM in experiment [1], over 10 µM in experiment [2] and 0.017 µM against PCSK9.

Consider `Cc1cnc(N[C@H]2CC[C@H](Nc3ccc(-n4nccc(C#N)c4=O)cn3)C2)nn1` [Example 277, 2-(6-(((1S,3S)-3-((6-Methyl-1,2,4-triazin-3-yl)amino)cyclopentyl)amino)pyridin-3-yl)-3-oxo-2,3-dihydropyridazine-4-carbonitrile], for which the IC50 in experiment [1] was over 40.1 µM; in experiment [2] it was 9.56 µM; on PCSK9, 0.0049 µM.

On to `O=c1ccncn1-c1cnc(N[C@H]2CC[C@H](Nc3ncc(C4CC4)nn3)C2)nc1` [Example 120, 2′-(((1S,3S)-3-((6-Cyclopropyl-1,2,4-triazin-3-yl)amino)cyclopentyl)amino)-6H-[1,5′-bipyrimidin]-6-one], for which the IC50 in experiment [1] is over 40.1 µM; in experiment [2], over 10 µM; against PCSK9, 0.143 µM.

Regarding `COc1cccc(F)c1-c1ccc(N[C@H]2CC[C@H](Nc3ncc(C)nn3)C2)nc1` [Example 308, (1S,3S)—N′-(5-(2-Fluoro-6-methoxyphenyl)pyridin-2-yl)-N^3-(6-methyl-1,2,4-triazin-3-yl)cyclopentane-1,3-diamine], the IC50 in experiment [1] is 12 µM; in experiment [2], over 10 µM; at PCSK9, 0.051 µM.
